# Results as given in publication PMC10573175 (International Journal of Molecular Sciences, 2023).
# Key:
# [1] = target: T1, human serum albumin (HSA) (Homo sapiens, UniProt P02768); assay: Effect of paracetamol on HSA–ceftazidime binding (fluorescence quenching, Lineweaver–Burk analysis); details: for KSV: 25 °C
# Method: (§1) UV-visible studies were performed on a Perkin Elmer Lambda 45 spectrophotometer (Germany) within the range of 200 nm to 500 nm as required. Intrinsic fluorescence measurements were performed on a Hitachi F 7000 spectrofluorometer (Japan) equipped with the programmable temperature controller. The excitation and emission slit widths were adjusted to 5 nm with a PMT voltage of 500 V. Circular dichroism (CD) spectrophotometric recordings were obtained with a Jasco J-815 spectropolarimeter (Japan) using a quartz cuvette of […]. The studies were carried out in the 20 mM tris buffer of pH 7.4 and at 25 °C unless stated otherwise. Autodock 4.2 [36] was used to perform molecular docking and MD simulations were performed through GROMACS 2021.3 [37] with the utilization of the CHARMM force field for a production run of 100 ns. The detailed methodology is given in the Supplementary Materials.
# HSA = HSA (Homo sapiens, UniProt P02768); assay: Far-UV circular dichroism spectroscopy of HSA with ceftazidime; details: far-UV CD, dependent on drug concentration
# Method: as §1
# Non-steroidal anti-inflammatory drug effect on the binding of p lasma […]
# on Perkin-Elmer Lambda 45 Spectrophotometer equipped with autosampler and water-
# bath with temperature controller. Quartz cuvettes of 1 cm path length were used for the
# Fluorescence measurements were performed on Hitachi spectrofluorometer (Model […]
# fluorescence spectra were collected at 25 °C with a cell of path length 1 cm. […]
# and emission slits were set at 5 nm. Intrinsic fluorescence was measured by exciting […]
# [2] = target: T1, human serum albumin (HSA); assay: Competitive binding site assay with site markers warfarin, ibuprofen and hemin (fluorescence quenching); details: for KSV: 25 °C
# Excerpt: DS1 is located in subdomain IIA, while DS2 is located in subdomain IIIA. There are several molecules that have the specific affinities towards these binding sites; for instance, warfarin binds strongly at DS1 and ibuprofen binds at DS2 [12]. There is another binding site within HSA, which is also known as fatty acid binding site 1, located in subdomain IB, which has a precise affinity for hemin [12]. Therefore, these molecules could be considered as the specific site markers for these sites and can be used to see the competitive binding between the molecule under consideration. […] The corresponding quenching and binding plots are given in Figure 7A,B and the calculated values of quenching and binding constants are shown in Table 2. […] To obtain more understanding on the binding site, we performed computational studies using molecular docking and molecular dynamics simulations, which will be described in the next sub-sections.
# as §1
# [3] = target: T1, human serum albumin (HSA); assay: Intrinsic fluorescence quenching of HSA by ceftazidime (Stern–Volmer, modified Stern–Volmer, Van't Hoff analysis); type: binding; details: for KSV (Stern–Volmer quenching constant): 20 mM tris buffer pH 7.4, excitation 295 nm; for ΔG (free energy change of binding): Van't Hoff
# Excerpt: The intrinsic fluorescence of HSA is mainly contributed by a single tryptophan residue, which can be excited at 295 nm to give the maximum fluorescence emission at 340 nm. […] The corrected fluorescence data are used to further analyze the results given in the next section.
# The fluorescence quenching is the result of either stable complex formation between fluorophore and the quencher or there is a collisional encounter between them. The first phenomenon is termed as static quenching, while the second one is known as dynamic quenching. […] The involvement of the quenching mechanism, either static or dynamic, can be understood with the help of temperature variation. Dynamic quenching increases in increasing the temperature while static quenching constant decreases in such a case.
# The binding constant (Kb) and number of binding sites (n) can also be estimated using the modified Stern–Volmer equation as:(2) logF0−F/F=logKb+nlog[Q].
# Van’t Hoff equations (given in Equations (S2) and (S3)) can be used to evaluate the thermodynamic parameters such as the free energy change (ΔG), enthalpy change (ΔH), and entropy change (ΔS) of a process using the values of physical parameters at equilibrium. Herein, we used the binding constant, Kb, at three different temperatures to fit into the Equation (S1) to obtain the values of ΔH from the slope and ΔS from the intercept of the plot of ln Kb vs. 1/T (Figure 5A), which are given in Table 1. The values of ΔH and ΔS were, further, used to calculate ΔG. From the evaluation of thermodynamic parameters, involvement of the major forces in the binding can be understood along with the feasibility of the interaction. According a to report published by Ross and Subramanian, hydrogen bonding interactions dominate when the values of ΔH and ΔS are negative, whereas positive values of these parameters can be observed in case of hydrophobic interactions.
# as §1, with “Materials. […]” for “Materials.”
# [4] = Van't Hoff plot of ln Kb vs. 1/T, 25–45 °C
# T1 sequence (P02768 25-609): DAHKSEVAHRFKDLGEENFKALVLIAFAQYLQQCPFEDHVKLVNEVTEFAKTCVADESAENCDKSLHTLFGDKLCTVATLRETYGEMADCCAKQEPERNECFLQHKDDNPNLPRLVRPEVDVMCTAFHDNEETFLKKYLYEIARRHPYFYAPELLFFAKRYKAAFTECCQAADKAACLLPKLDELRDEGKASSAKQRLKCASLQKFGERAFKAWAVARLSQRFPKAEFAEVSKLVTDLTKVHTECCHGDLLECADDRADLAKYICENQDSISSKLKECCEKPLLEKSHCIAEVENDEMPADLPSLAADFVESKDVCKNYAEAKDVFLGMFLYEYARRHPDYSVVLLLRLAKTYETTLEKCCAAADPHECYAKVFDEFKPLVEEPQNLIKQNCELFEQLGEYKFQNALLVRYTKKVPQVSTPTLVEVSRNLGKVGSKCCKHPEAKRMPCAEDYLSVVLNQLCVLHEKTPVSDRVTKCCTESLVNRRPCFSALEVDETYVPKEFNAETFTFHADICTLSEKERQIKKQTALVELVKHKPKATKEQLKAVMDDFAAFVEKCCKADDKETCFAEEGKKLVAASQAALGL
# HSA, sequence (P02768 25-609): as above
compound,measurement,setting,value
CC(C)(O/N=C(\C(=O)N[C@@H]1C(=O)N2C(C(=O)[O-])=C(C[n+]3ccccc3)CS[C@H]12)c1csc(N)n1)C(=O)O [Ceftazidime],KSV,[1]; in the presence of 50 µM paracetamol,2.2 × 10^3 M^–1
same,KSV,[1]; in the presence of 100 µM paracetamol,1.8 × 10^3 M^–1
same,KSV,[1]; in the presence of 150 µM paracetamol,1.7 × 10^3 M^–1
same,KSV,[1]; in the presence of 250 µM paracetamol,1.6 × 10^3 M^–1
same,KSV,[1]; in the presence of 500 µM paracetamol,1.3 × 10^3 M^–1
same,effect on secondary structure of HSA,HSA,partial unfolding of the protein
same,KSV,[2]; in the presence of hemin (site marker subdomain IB),1.3 × 10^3 M^–1
same,KSV,[2]; in the presence of ibuprofen (site marker DS2),2.3 × 10^3 M^–1
same,KSV,[2]; in the presence of warfarin (site marker DS1),1.7 × 10^3 M^–1
same,preferred binding site within HSA,[2]; site markers and docking,subdomain IB
same,n (number of binding sites),[3]; 25 °C,0.96
same,KSV (Stern–Volmer quenching constant),[3]; 25 °C,2.3 × 10^3 M^–1
same,ΔG (free energy change of binding),[3]; 25 °C,-4.4 kcal/mol
same,n (number of binding sites),[3]; 35 °C,1.01
same,KSV (Stern–Volmer quenching constant),[3]; 35 °C,2.6 × 10^3 M^–1
same,ΔG (free energy change of binding),[3]; 35 °C,-4.95 kcal/mol
same,n (number of binding sites),[3]; 45 °C,1.09
same,KSV (Stern–Volmer quenching constant),[3]; 45 °C,3.2 × 10^3 M^–1
same,ΔG (free energy change of binding),[3]; 45 °C,-5.5 kcal/mol
same,quenching mechanism,[3]; KSV increased on increasing the temperature,dynamic quenching mechanism
same,ΔH (enthalpy change of binding),[3]; [4],11.8 kcal/mol
same,ΔS (entropy change of binding),[3]; [4],227.8 J mol^−1 K^−1
"CC(=O)Nc1ccc(O)cc1 [Paracetamol, paracetamol]",type of inhibition of HSA–ceftazidime binding,[1]; Lineweaver–Burk plots,non-competitive
